# Measured values taken from patent publication US9999619B2, “Piperidin-4-yl azetidine derivatives as JAK1 inhibitors” (Incyte Corporation, priority 2010, dated 2018).
# What was measured:
# Format in all cases: biochemical
# [1] = target: human JAK1 (a.a. 837-1142) (Homo sapiens, UniProt P23458); assay: In vitro JAK kinase assay (HTRF, phosphorylation of a biotinylated peptide), JAK1; details: measured at 1 mM ATP
# Procedure, shortened: (§1)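 N-terminally His-tagged catalytic domains, baculovirus-expressed in insect cells and purified, were used as enzyme. Reactions ran 1 hr at room temperature and were stopped with a mix of 45 mM EDTA, 300 nM SA-APC and 6 nM Eu-Py20. The HTRF signal was read after 40 min of antibody binding.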
# [2] = target: human JAK1 (a.a. 837-1142); assay: as above; details: ratio of JAK2 IC50 to JAK1 IC50, measured at 1 mM ATP
# Procedure, shortened: as §1
# [3] = target: Jak2 (a.a. 828-1132) (Homo sapiens (Human), UniProt O60674); assay: In vitro JAK kinase assay (HTRF, phosphorylation of a biotinylated peptide), JAK2; details: measured at 1 mM ATP
# Sequence of Jak2 (a.a. 828-1132) (O60674 828-1132): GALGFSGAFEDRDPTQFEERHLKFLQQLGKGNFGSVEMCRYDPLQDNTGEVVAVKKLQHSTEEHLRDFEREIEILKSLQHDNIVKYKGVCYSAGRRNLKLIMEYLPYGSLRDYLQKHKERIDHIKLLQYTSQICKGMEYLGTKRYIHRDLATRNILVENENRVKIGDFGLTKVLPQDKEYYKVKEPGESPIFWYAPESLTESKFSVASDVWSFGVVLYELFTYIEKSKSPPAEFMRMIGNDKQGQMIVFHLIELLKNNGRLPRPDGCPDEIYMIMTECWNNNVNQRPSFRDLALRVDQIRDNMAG
# Procedure, shortened: as §1
IC50 [1],IC50 Ratio JAK2/JAK1 [2],IC50 [3],SMILES
5 to 20 nM,4.0,10 to 50 nM,"CC1(N2CC(CC#N)(n3cc(-c4ncnc5[nH]ccc45)cn3)C2)CCN(C(=O)c2cccc(F)c2)CC1 [Example 152, {1-[1-(3-Fluorobenzoyl)-4-methylpiperidin-4-yl]-3-[4-(7H-pyrrolo[2,3-d]pyrimidin-4-yl)-1H-pyrazol-1-yl]azetidin-3-yl}acetonitrile]"
≤ 5 nM,22.4,50 to 100 nM,"N#CCC1(n2cc(-c3ncnc4[nH]ccc34)cn2)CN([C@@H]2CCN(C(=O)c3ccnc(C(F)(F)F)n3)C[C@@H]2F)C1 (relative stereo) [Example 362, {1-(cis-3-Fluoro-1-{[2-(trifluoromethyl)pyrimidin-4-yl]carbonyl}piperidin-4-yl)-3-[4-(7H-pyrrolo[2,3-d]pyrimidin-4-yl)-1H-pyrazol-1-yl]azetidin-3-yl}acetonitrile]"
5 to 20 nM,11.1,50 to 100 nM,"N#CCC1(n2cc(-c3ncnc4[nH]ccc34)cn2)CN(C2CCN(C(=O)OCc3ccc(F)c(F)c3)CC2)C1 [Example 394, 3,4-difluorobenzyl 4-{3-(cyanomethyl)-3-[4-(7H-pyrrolo[2,3-d]pyrimidin-4-yl)-1H-pyrazol-1-yl]azetidin-1-yl}piperidine-1-carboxylate]"
5 to 20 nM,3.6,10 to 50 nM,"N#CCC1(n2cc(-c3ncnc4[nH]ccc34)cn2)CN(C2CCN(C(=O)Nc3ncccc3C(F)(F)F)CC2)C1 [Example 201, 4-{3-(cyanomethyl)-3-[4-(7H-pyrrolo[2,3-d]pyrimidin-4-yl)-1H-pyrazol-1-yl]azetidin-1-yl}-N-[3-(trifluoromethyl)pyridin-2-yl]piperidine-1-carboxamide]"
20 to 30 nM,6.0,> 100 nM,"N#CCC1(n2cc(-c3ncnc4[nH]ccc34)cn2)CN(C2CCN(C(=O)c3ccc(-c4nc5ccccc5o4)c(F)c3)CC2)C1 [Example 137, {1-{1-[4-(1,3-benzoxazol-2-yl)-3-fluorobenzoyl]piperidin-4-yl}-3-[4-(7H-pyrrolo[2,3-d]pyrimidin-4-yl)-1H-pyrazol-1-yl]azetidin-3-y4}acetonitrile]"
≤ 5 nM,4.0,10 to 50 nM,"COc1ncccc1NC(=O)N1CCC(N2CC(CC#N)(n3cc(-c4ncnc5[nH]ccc45)cn3)C2)CC1 [Example 204, 4-{3-(cyanomethyl)-3-[4-(7H-pyrrolo[2,3-d]pyrimidin-4-yl)-1H-pyrazol-1-yl]azetidin-1-yl}-N-(2-methoxypyridin-3-yl)piperidine-1-carboxamide]"
5 to 20 nM,11.9,50 to 100 nM,"N#CCC1(n2ccc(-c3ncnc4[nH]ccc34)c2)CN(C2CCN(C(=O)c3ccnc(C(F)(F)F)n3)CC2)C1 [Example 345, [3-[3-(7H-Pyrrolo[2,3-d]pyrimidin-4-yl)-1H-pyrrol-1-yl]-1-(1-{[2-(trifluoromethyl)pyrimidin-4-yl]carbonyl}piperidin-4-yl)azetidin-3-yl]acetonitrile]"
5 to 20 nM,9.9,50 to 100 nM,"CCn1nccc1NC(=O)N1CCC(N2CC(CC#N)(n3cc(-c4ncnc5[nH]ccc45)cn3)C2)CC1 [Example 196, 4-{3-(cyanomethyl)-3-[4-(7H-pyrrolo[2,3-d]pyrimidin-4-yl)-1H-pyrazol-1-yl]azetidin-1-yl}-N-(1-ethyl-1H-pyrazol-5-yl)piperidine-1-carboxamide]"
≤ 5 nM,9.5,10 to 50 nM,"Cc1ccccc1NC(=O)N1CCC(N2CC(CC#N)(n3cc(-c4ncnc5[nH]ccc45)cn3)C2)CC1 [Example 185, 4-{3-(cyanomethyl)-3-[4-(7H-pyrrolo[2,3-d]pyrimidin-4-yl)-1H-pyrazol-1-yl]azetidin-1-yl}-N-(2-methylphenyl)piperidine-1-carboxamide]"
≤ 5 nM,5.5,≤ 10 nM,"N#CCC1(n2cc(-c3ncnc4[nH]ccc34)cn2)CN(C2CCN(C(=O)Nc3cccc(C(F)(F)F)c3)CC2)C1 [Example 166, 4-{3-(cyanomethyl)-3-[4-(7H-pyrrolo[2,3-d]pyrimidin-4-yl)-1H-pyrazol-1-yl]azetidin-1-yl}-N-[3-(trifluoromethyl)phenyl]piperidine-1-carboxamide]"
≤ 5 nM,3.6,≤ 10 nM,"N#CCC1(n2cc(-c3ncnc4[nH]ccc34)cn2)CN(C2CCN(C(=O)Nc3cc(F)cc(F)c3)CC2)C1 [Example 175, 4-{3-(cyanomethyl)-3-[4-(7H-pyrrolo[2,3-d]pyrimidin-4-yl)-1H-pyrazol-1-yl]azetidin-1-yl}-N-(3,5-difluorophenyl)piperidine-1-carboxamide]"
5 to 20 nM,7.8,50 to 100 nM,"N#CCC1(n2cc(-c3ncnc4[nH]ccc34)cn2)CN(C2CCN(Cc3cccc(C(F)(F)F)c3F)CC2)C1 [Example 212, {1-{-[2-fluoro-3-(trifluoromethyl)benzyl]piperidin-4-yl}-3-[4-(7H-pyrrolo[2,3-d]pyrimidin-4-yl)-1H-pyrazol-1-yl]azetidin-3-yl}acetonitrile]"
5 to 20 nM,5.8,50 to 100 nM,"CC1CC(N2CC(CC#N)(n3cc(-c4ncnc5[nH]ccc45)cn3)C2)CCN1C(=O)C1CCC(F)(F)CC1 (stereo not drawn) [Example 151, {1-{1-[(4,4-difluorocyclohexyl)carbonyl]-2-methylpiperidin-4-yl}-3-[4-(7H-pyrrolo[2,3-d]pyrimidin-4-yl)-1H-pyrazol-1-yl]azetidin-3-yl}acetonitrile]"

# Further lines, the molecule ahead of its results:
SMILES,IC50 [1],IC50 Ratio JAK2/JAK1 [2],IC50 [3]
"N#CCC1(n2cc(-c3ncnc4[nH]ccc34)cn2)CN(C2CC3CCC(C2)N3C(=O)c2cc(F)cc(C#N)c2)C1 (stereo not drawn) [Example 138, 3-[(3-{3-(Cyanomethyl)-3-[4-(7H-pyrrolo[2,3-d]pyrimidin-4-yl)-1H-pyrazol-1-yl]azetidin-1-yl}-8-azabicyclo[3.2.1]oct-8-yl)carbonyl]-5-fluorobenzonitrile]",≤ 5 nM,13.9,≤ 10 nM
"N#CCC1(n2cc(-c3ncnc4[nH]ccc34)cn2)CN(C2CC3CCC(C2)N3Cc2c(F)ccc(F)c2Cl)C1 (stereo not drawn) [Example 241, {1-[8-(2-Chloro-3,6-difluorobenzyl)-8-azabicyclo[3.2.1]oct-3-yl]-3-[4-(7H-pyrrolo[2,3-d]pyrimidin-4-yl)-1H-pyrazol-1-yl]azetidin-3-yl}acetonitrile]",≤ 5 nM,3.8,≤ 10 nM
"N#CCC1(n2cc(-c3ncnc4[nH]ccc34)cn2)CN(C2CCN(C(=O)C3CCC(F)(F)CC3)CC2)C1 [Example 100, {1-{1-[(4,4-difluorocyclohexyl)carbonyl]piperidin-4-yl}-3-[4-(7H-pyrrolo[2,3-d]pyrimidin-4-yl)-1H-pyrazol-1-yl]azetidin-3-yl}acetonitrile]",5 to 20 nM,6.6,50 to 100 nM
"N#CCC1(n2cc(-c3ncnc4[nH]ccc34)cn2)CN(C2CCN(C(=O)c3c(F)cc(C#N)cc3F)CC2)C1 [Example 83, 4-[(4-{3-(cyanomethyl)-3-[4-(7H-pyrrolo[2,3-d]pyrimidin-4-yl)-1H-pyrazol-1-yl]azetidin-1-yl}piperidin-1-yl)carbonyl]-3,5-difluorobenzonitrile]",≤ 5 nM,5.8,10 to 50 nM
"Cc1cc(C(=O)N2CCC(N3CC(CC#N)(n4cc(-c5ncnc6[nH]ccc56)cn4)C3)CC2)cs1 [Example 73, {1-{1-[(5-methyl-3-thienyl)carbonyl]piperidin-4-yl}-3-[4-(7H-pyrrolo[2,3-d]pyrimidin-4-yl)-1H-pyrazol-1-yl]azetidin-3-yl}acetonitrile]",≤ 5 nM,4.2,≤ 10 nM
"N#CCC1(n2cc(-c3ncnc4[nH]ccc34)cn2)CN(C2CCN(C(=O)c3ccc(-c4cccc5ccncc45)c(F)c3)CC2)C1 [Example 131, {1-[1-(3-fluoro-4-isoquinolin-8-ylbenzoyl)piperidin-4-yl]-3-[4-(7H-pyrrolo[2,3-d]pyrimidin-4-yl)-1H-pyrazol-1-yl]azetidin-3-yl}acetonitrile]",≤ 5 nM,8.1,10 to 50 nM
"COc1ccc(F)cc1C(=O)N1CCC(N2CC(CC#N)(n3cc(-c4ncnc5[nH]ccc45)cn3)C2)CC1 [Example 38, {1-[1-(5-fluoro-2-methoxybenzoyl)piperidin-4-yl]-3-[4-(7H-pyrrolo[2,3-d]pyrimidin-4-yl)-1H-pyrazol-1-yl]azetidin-3-yl}acetonitrile]",≤ 5 nM,5.7,≤ 10 nM
"N#CCC1(n2cc(-c3ncnc4[nH]ccc34)cn2)CN(C2CCN(C(=O)c3ccc(-c4ccc5nccn5c4)c(F)c3)CC2)C1 [Example 135, {1-[1-(3-fluoro-4-imidazo[1,2-a]pyridin-6-ylbenzoyl)piperidin-4-yl]-3-[4-(7H-pyrrolo[2,3-d]pyrimidin-4-yl)-1H-pyrazol-1-yl]azetidin-3-yl}acetonitrile]",≤ 5 nM,7.1,10 to 50 nM
"N#CCC1(n2cc(-c3ncnc4[nH]ccc34)cn2)CN(C2CCN(C(=O)Nc3ccc(F)c(F)c3)CC2)C1 [Example 176, 4-{3-(cyanomethyl)-3-[4-(7H-pyrrolo[2,3-d]pyrimidin-4-yl)-1H-pyrazol-1-yl]azetidin-1-yl}-N-(3,4-difluorophenyl)piperidine-1-carboxamide]",≤ 5 nM,5.1,≤ 10 nM
"N#CCC1(n2cc(-c3ncnc4[nH]ccc34)cn2)CN(C2CCN(C(=O)c3ccnc(C(F)(F)F)c3)CC2)C1 [Example 57, (3-[4-(7H-pyrrolo[2,3-d]pyrimidin-4-yl)-1H-pyrazol-1-yl]-1-{1-[2-(trifluoromethyl)isonicotinoyl]piperidin-4-yl}azetidin-3-yl)acetonitrile]",> 30 nM,3.3,> 100 nM
